According to US12466813B2, “PRC1 inhibitors and methods of treatment therewith” (The Regents of the University of Michigan, priority 2018, dated 2025):

target: T1, RING1B-BMI1 (Homo sapiens, UniProt Q99496); assay: KD classes of Table A (direct binding to Ring1B-Bmi1); conditions: class given in Table A
T1 sequence (Q99496 1-336): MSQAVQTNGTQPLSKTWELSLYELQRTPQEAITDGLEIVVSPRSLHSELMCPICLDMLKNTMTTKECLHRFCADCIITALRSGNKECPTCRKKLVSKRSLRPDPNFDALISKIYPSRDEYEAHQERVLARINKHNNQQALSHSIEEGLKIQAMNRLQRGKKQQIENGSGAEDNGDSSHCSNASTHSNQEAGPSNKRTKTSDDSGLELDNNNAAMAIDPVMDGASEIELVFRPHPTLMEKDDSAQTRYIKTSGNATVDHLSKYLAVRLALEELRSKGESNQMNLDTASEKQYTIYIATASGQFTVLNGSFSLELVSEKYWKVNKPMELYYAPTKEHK
T1 sequence (P35226 1-326 partner): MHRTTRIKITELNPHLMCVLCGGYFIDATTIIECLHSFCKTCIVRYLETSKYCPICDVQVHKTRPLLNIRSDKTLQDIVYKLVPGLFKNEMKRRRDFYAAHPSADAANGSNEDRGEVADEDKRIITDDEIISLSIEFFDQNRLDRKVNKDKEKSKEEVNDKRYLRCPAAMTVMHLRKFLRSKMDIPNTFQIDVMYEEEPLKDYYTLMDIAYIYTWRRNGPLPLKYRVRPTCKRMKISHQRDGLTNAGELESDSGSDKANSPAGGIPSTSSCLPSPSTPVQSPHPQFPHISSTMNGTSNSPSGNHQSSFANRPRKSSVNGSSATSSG
Description: Experiments were conducted during development of embodiments herein to develop small molecule inhibitors of PRC1 by targeting the Ring1B-BMI1 E3 ligase. These compounds bind directly to Ring1B-Bmi1 with low-micromolar affinity and inhibit PRC1 in vitro and in cells. […] Experiments were conducted during development of embodiments herein to test COMPOUND 1 in leukemia stem cell models represented by TEX cells (Ref. 22; herein incorporated by reference in its entirety) and M9-ENL1 cells (Ref. 23; herein incorporated by reference in its entirety). […] In some embodiments, COMPOUND 1 and COMPOUND 1 analogs are find use as agents in targeting leukemia and other cancer stem cells.
The compounds listed in Table A have been synthesized and/or tested for activity in inhibiting activity of PRC1 complex, and are within the scope herein.

Row | Structure (SMILES) | Kd [µM]
1 | CC(C)c1c(-c2cc(F)cc3[nH]ccc23)[nH]c(C(=O)O)c1-c1cc(C(F)(F)F)cc2[nH]ccc12 [compound 43] | < 20
2 | CCc1c(-c2cccc3[nH]ccc23)[nH]c(C(=O)O)c1-c1ccccc1 [compound 89] | 20 to 50
3 | CCc1c(-c2cccc3[nH]ccc23)[nH]c(C(=O)O)c1-c1ccc(OC)cc1Br [compound 15] | < 20
4 | CC(C)c1c(-c2cc(F)cc3[nH]ccc23)[nH]c(C(=O)O)c1-c1ccc2[nH]ccc2c1 [compound 38] | < 20
5 | CCc1cc(-c2c(C(=O)O)[nH]c(-c3cc(F)cc4[nH]ccc34)c2C(C)C)c2cc[nH]c2c1 [compound 45] | < 20
6 | CCc1c(-c2cccc3c2ccn3C)[nH]c(C(=O)O)c1-c1ccccc1 [compound 101] | 50 to 100
7 | CCc1c(-c2cccc3c2ccn3C)[nH]c(C(=O)O)c1-c1ccccc1Cl [compound 88] | 20 to 50
8 | CCc1c(-c2cccc3[nH]ncc23)[nH]c(C(=O)O)c1-c1ccc(OC)cc1Cl [compound 91] | 50 to 100
9 | CCCc1c(-c2cccc3[nH]ccc23)[nH]c(C(=O)O)c1-c1ccccc1Cl [compound 95] | 50 to 100
10 | CCc1c(C(=O)O)[nH]c(-c2cccc3[nH]ccc23)c1-c1ccccc1 [compound 113] | > 100
11 | Cc1cc(-c2cccc3[nH]ccc23)[nH]c1C(=O)O [compound 120] | > 100
12 | O=C(O)c1ccc(-c2ccccc2)s1 [compound 152] | > 100
13 | CCc1c(-c2cccc3c2ccn3C)[nH]c(C(=O)O)c1-c1ccc(F)c(C)c1 [compound 109] | > 100
14 | CC(C)CCn1ccc2c(-c3ccc(C(=O)O)[nH]3)cccc21 [compound 124] | > 100
15 | CC(C)c1c(-c2cc(F)cc3[nH]ccc23)[nH]c(C(=O)O)c1-c1cccc2[nH]ncc12 [compound 40] | < 20
16 | Cc1cccc(-c2ccc(C(=O)O)[nH]2)c1 [compound 128] | > 100
17 | CC(C)c1c(-c2cc(F)cc3[nH]ccc23)[nH]c(C(=O)O)c1-c1cccc2c1ccn2CCO [compound 44] | < 20
18 | CCOc1cc(-c2c(C(=O)O)[nH]c(-c3cc(F)cc4[nH]ccc34)c2C(C)C)c2cc[nH]c2c1 [compound 42] | < 20
19 | CCC(C)c1c(-c2cc(F)cc3[nH]ccc23)[nH]c(C(=O)O)c1-c1cc(OC)cc2[nH]ccc12 (stereo not drawn) [compound 171] | < 20

Further lines, results first:

Row | Kd [µM] | Structure (SMILES)
20 | < 20 | CC(C)c1c(-c2cc(F)cc3[nH]ccc23)[nH]c(C(=O)O)c1-c1cccc2[nH]c(-c3cc(O)no3)cc12 [compound 226]
21 | < 20 | CC(C)c1c(-c2cc(F)cc3[nH]ccc23)[nH]c(C(=O)O)c1-c1ccnc2[nH]c(C3=CCNCC3)cc12 [compound 255]
22 | < 20 | CC(C)c1c(-c2cc(F)cc3[nH]ccc23)[nH]c(C(=O)O)c1-c1cccc2ncsc12 [compound 204]
23 | < 20 | COc1cnc2[nH]ccc2c1-c1c(C(=O)O)[nH]c(-c2cc(F)cc3[nH]ccc23)c1C(C)C [compound 247]
24 | < 20 | COc1cc(-c2c(C(=O)O)[nH]c(-c3cc(F)cc4[nH]ccc34)c2C(C)C)c2ccn(CC(=O)NCc3nc(C)cs3)c2c1 [compound 179]
25 | < 20 | CC(C)c1c(-c2cc(F)cc3[nH]ccc23)[nH]c(C(=O)O)c1-c1ccnc2[nH]c(-c3cccc(Cl)c3)cc12 [compound 253]
26 | < 20 | CC(C)c1c(-c2cc(F)cc3[nH]ccc23)[nH]c(C(=O)O)c1-c1cccc2[nH]c(CS(C)(=O)=O)cc12 [compound 230]
27 | < 20 | CC(C)c1c(-c2cccc3[nH]ccc23)c(C(=O)O)n2c1-c1cc(F)cc3ccn(c13)[C@@H](C)C2 [compound 271]
28 | < 20 | CC(C)c1c(-c2cc(F)cc3[nH]ccc23)[nH]c(C(=O)O)c1-c1c(F)ccc2[nH]ccc12 [compound 243]
29 | < 20 | CCNc1ccc2[nH]ccc2c1-c1c(C(=O)O)[nH]c(-c2cc(F)cc3[nH]ccc23)c1C(C)C [compound 240]
30 | < 20 | COc1ccc(-c2cc3c(-c4c(C(=O)O)[nH]c(-c5cc(F)cc6[nH]ccc56)c4C(C)C)ccnc3[nH]2)cc1 [compound 252]
